We go through 16 compounds from patent US20130065962A1, “Compounds For Use In The Treatment Of Diseases” (INOXIA LIFESCIENCES GMBH, priority 2010, published 2013).

What all share (assay type): biochemical
Assay [1] has as its target T1, eosinophil peroxidase (EPO) (Homo sapiens, UniProt P11678).
T1 construct: 20 nM of EPO
T1 sequence (P11678 140-715): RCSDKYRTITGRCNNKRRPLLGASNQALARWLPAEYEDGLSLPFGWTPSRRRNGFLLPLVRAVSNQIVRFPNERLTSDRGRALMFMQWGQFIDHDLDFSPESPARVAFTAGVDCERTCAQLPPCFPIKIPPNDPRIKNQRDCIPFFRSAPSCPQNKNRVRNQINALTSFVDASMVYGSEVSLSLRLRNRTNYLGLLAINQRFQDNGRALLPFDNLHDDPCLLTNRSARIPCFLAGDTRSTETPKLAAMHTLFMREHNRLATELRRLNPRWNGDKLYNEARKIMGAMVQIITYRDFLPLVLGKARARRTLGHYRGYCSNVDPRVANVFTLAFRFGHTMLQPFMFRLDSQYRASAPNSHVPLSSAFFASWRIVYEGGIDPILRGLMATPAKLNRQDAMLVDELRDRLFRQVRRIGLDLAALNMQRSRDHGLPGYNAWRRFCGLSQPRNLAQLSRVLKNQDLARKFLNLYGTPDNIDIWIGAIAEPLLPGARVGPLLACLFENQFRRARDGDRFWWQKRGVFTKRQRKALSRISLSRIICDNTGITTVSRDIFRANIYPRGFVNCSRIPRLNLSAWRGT
Description: EPO bromination activity, monochlorodimedon (MCD) assay. Here is the method:
In order to test to what extent the substances according to the invention are able to inhibit EPO, the substances were tested for their inhibitory potential. […] In that, IC50 is that inhibitor concentration, which is required to inhibit an enzyme, here EPO, by 50%. This concentration is determined UV/Vis spectrophotometrically at 290 nm in the steady-state with a monochlorodimedon (MCD) assay.
Eosinophil peroxidase forms a multiplicity of different enzyme intermediates and is able to catalyze a high number of redox reactions. The physiological role of EPO is the oxidation of bromide or thiocyanate, respectively, to hypobromous acid or hypothiocyanate, respectively (also called halogenation cycle). And it is exactly this reaction that has to be inhibited. In the presence of phenolic substances, however, the enzyme can also undergo the so-called peroxidase cycle.
In order to determine the properties of the substances according to the invention to be inhibited, a method was used, in which the bromination activity is examined.
The extent of inhibition of the physiological bromide oxidation was photometrically determined using monochlorodimedon. The halogenation rate (initial inclination of the curve at 290 nm) with inhibitor was related to a blind value (without inhibitor), and therefrom the inactivation rate (in %) was determined. This was entered into a diagram (y-axis) opposite the inhibitor concentration (x-axis), and from the hyperbolic fit of the curve, the IC50 value for each inhibitor was determined.
100 mM of phosphate buffer, pH 7.0
100 μM of monochlorodimedon

In the next assay the target is lactoperoxidase (LPO) (UniProt P80025). Description: LPO + Br halogenation inhibition (MCD assay). Particulars: bromide as substrate.
Assay [2] has as its target T2, myeloperoxidase (MPO) (Homo sapiens, UniProt P05164).
T2 sequence (P05164 49-745): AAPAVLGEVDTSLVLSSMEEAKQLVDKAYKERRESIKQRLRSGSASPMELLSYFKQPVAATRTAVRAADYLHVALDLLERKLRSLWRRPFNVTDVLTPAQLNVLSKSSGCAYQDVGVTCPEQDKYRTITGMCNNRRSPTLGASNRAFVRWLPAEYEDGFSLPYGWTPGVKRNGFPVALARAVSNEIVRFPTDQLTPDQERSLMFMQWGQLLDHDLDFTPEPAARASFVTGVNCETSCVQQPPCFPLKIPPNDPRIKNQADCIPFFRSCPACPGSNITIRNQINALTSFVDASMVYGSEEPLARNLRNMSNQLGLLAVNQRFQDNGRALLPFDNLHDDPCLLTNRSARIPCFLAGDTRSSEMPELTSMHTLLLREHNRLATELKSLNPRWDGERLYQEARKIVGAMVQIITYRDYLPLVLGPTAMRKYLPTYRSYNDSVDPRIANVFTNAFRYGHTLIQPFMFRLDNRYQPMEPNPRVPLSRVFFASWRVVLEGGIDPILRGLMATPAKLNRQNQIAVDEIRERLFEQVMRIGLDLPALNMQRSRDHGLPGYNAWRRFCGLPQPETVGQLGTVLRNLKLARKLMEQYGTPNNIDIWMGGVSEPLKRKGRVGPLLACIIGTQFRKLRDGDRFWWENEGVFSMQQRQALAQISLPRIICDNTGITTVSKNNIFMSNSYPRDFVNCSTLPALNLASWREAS
As to the kind of experiment: MPO + Br halogenation inhibition (MCD assay). To be noted: bromide as substrate.

The target in assay [3] is T2, myeloperoxidase (MPO). As to the kind of experiment: MPO + Cl halogenation inhibition (MCD assay). Particulars: chloride as substrate.
[4] abbreviates: Example 3, same protocol as Example 1, read-out: IC50 EPO/Br.
Setting [5] is: Example 2, tests performed as in Example 1, read-out: IC50 value (EPO).
Where [6] appears, read: bromide oxidation, MCD assay at 290 nm, 100 mM bromide, 20 nM EPO, pH 7.0, read-out: IC50 EPO + Br.

Read-outs that look alike come from different tables or passages of the source. Where only a bound is given, the exact number is not on record here.

On to `NNC(=O)COc1ccc(F)cc1` [PD09, 2-(4-fluorophenoxy)acetohydrazide], for which, in assay [1] (setting [4]), the IC50 is 2700 nM.
On to `CC(C)NNC(=O)c1ccncc1` [iproniazide, N′-isopropylisonicotinohydrazide, reference compound], for which the IC50 in assay [1] (setting [5]) is > 500000 nM.
For `NNC(=O)COc1ccccc1Br` [PD17, 2-(2-bromophenoxy)acetohydrazide], the IC50 in assay [1] (setting [4]) turned out to be 3900 nM.
In the case of `NNC(=O)CNc1ccc(F)c(Cl)c1` [(4), 4-fluoro-3-chloro-phenylaminoethane-hydrazide], the IC50 in assay [1] (setting [6]) stood at 19 nM; on lactoperoxidase (LPO), 140 nM; at myeloperoxidase (MPO) [2], 547 nM; on myeloperoxidase (MPO) [3], 2400 nM.
In the same order, the values of `NNC(=O)CNc1ccc(F)cc1F` [(7), 2,4-di-fluoro-phenylaminoethane-hydrazide] are 34 nM, 322 nM, 2040 nM and 6550 nM.
As to `NNC(=O)CNc1ccccc1F` [(3), 2-fluoro-phenylaminoethane-hydrazide], the IC50 in assay [1] (setting [6]) is 9 nM; at lactoperoxidase (LPO) it was 100 nM; on myeloperoxidase (MPO) [2] it was 1900 nM; at myeloperoxidase (MPO) [3], 8800 nM. In addition, the “fold potential relative to compound (6) (EPO IC50)” value in assay [1] (compound (3) compared with non-halogenated compound (6)) was > 200 fold.
`O=C(O)CNc1ccc(Cl)cc1` [PD02, 2-[(4-chlorophenyl)amino]acetic acid]: the IC50 in assay [1] (setting [4]) is 200 nM.
On to `NNC(=O)CSc1ccc(Cl)cc1` [PD06, 2-[(4-chlorophenyl)sulfanyl]acetohydrazide], for which the IC50 in assay [1] (setting [4]) came out at 1200 nM.
`NNC(=O)CNc1cccc(Br)c1` [(5), 3-bromo-phenylaminoethane-hydrazide]: the IC50 in assay [1] (setting [6]) is 17 nM; on lactoperoxidase (LPO), 40 nM; at myeloperoxidase (MPO) [2], 1600 nM; at myeloperoxidase (MPO) [3] it was 3700 nM.
In the same order, the values of `Cc1ccc(NCC(=O)NN)cc1` [(8), 4-methyl-phenylaminoethane-hydrazide] are 2270 nM, 2770 nM, 29400 nM and 32200 nM.
`NNC(=O)CNc1ccc(Cl)cc1` [(2), 4-chloro-phenylaminoethane-hydrazide]: the IC50 in assay [1] (setting [6]) turned out to be 24 nM; on lactoperoxidase (LPO) it was 30 nM; on myeloperoxidase (MPO) [2], 1200 nM; at myeloperoxidase (MPO) [3], 1970 nM.
On to `NNC(=O)CCc1ccccc1O` [PD20, 3-(2-hydroxyphenyl)propanohydrazide], for which the IC50 in assay [1] (setting [4]) was 3100 nM.
As for `O=C(O)CNc1ccccc1F` [PD01, N-(2-fluorophenyl)glycin], in assay [1] (setting [4]), the IC50 was 1000 nM.
Regarding `NNC(=O)CNc1ccccc1` [Compound (6), phenylaminoethane-hydrazide], the IC50 amounted to 2290 nM in assay [1] (setting [6]), 4970 nM on lactoperoxidase (LPO), 84600 nM on myeloperoxidase (MPO) [2] and 46000 nM on myeloperoxidase (MPO) [3].
In the case of `NNC(=O)CNc1ccc(F)cc1` [(1), 4-fluoro-phenylaminoethane-hydrazide], the IC50 in assay [1] (setting [6]) came to 240 nM; at lactoperoxidase (LPO) it was 540 nM; at myeloperoxidase (MPO) [2] it was 4120 nM; on myeloperoxidase (MPO) [3], 5430 nM.
As to `NNC(=O)c1ccncc1` [isoniazide, pyridine-4-carbohydrazide, reference compound], the IC50 in assay [1] (setting [5]) amounted to 6040 nM.
